{"source": "paper PMC7156458", "about": "“Synthetic biology based construction of biological activity-related library of fungal decalin-containing diterpenoid pyrones” (Nature Communications, 2020)", "key": {"MCF-7 cells": {"test_system": "MCF-7 cells", "experiment": "cell cytotoxic effects against MCF-7 cells (72 h), A490", "type": "cell-based, human", "settings": "MCF-7, 72 h"}, "[1]": {"experiment": "cytotoxicity in Drosophila DL1 cells", "type": "cell-based", "settings": "Drosophila, DL1 cells (embryonic macrophage-derived), DL1 cells", "experimental": "(§1) We screened the DDPs on the Drosophila assay system for cytotoxicity, inhibitory activity of innate immune signalling and insecticidal activity. The cytotoxicity of the DDPs was evaluated using two cell lines, embryonic macrophage-derived DL1 cells[58]–[60] and larval blood cell-derived l(2)mbn cells, and their IC50 values are listed in Supplementary Table 23."}, "DL1 cells": {"test_system": "DL1 cells", "experiment": "cytotoxicity in Drosophila DL1 cells", "type": "cell-based", "settings": "DL1 cells; for IC50: Drosophila melanogaster, cytotoxicity", "experimental": "as §1"}, "[2]": {"experiment": "cytotoxicity in Drosophila l(2)mbn cells", "type": "cell-based", "settings": "Drosophila, l(2)mbn cells (larval blood cell-derived)", "experimental": "as §1"}, "l(2)mbn cells": {"test_system": "l(2)mbn cells", "experiment": "cytotoxicity in Drosophila l(2)mbn cells", "type": "cell-based", "settings": "for Luminescence Raw1: replicate 1; for Luminescence Raw2: replicate 2; for IC50: Drosophila melanogaster, cytotoxicity", "experimental": "as §1"}, "[3]": {"test_system": "human immunodeficiency virus-1 (HIV-1)", "experiment": "anti-HIV MAGI assay", "type": "cell-based", "settings": "anti-HIV", "description": "We examined the inhibitory activities of DDPs against various species of bacteria (both gram-negative and gram-positive bacteria), fungi and viruses. […] In contrast, preliminary screening of the DDPs for anti-viral agents with hepatitis B virus (HBV), measles virus (MV), Epstein-Barr virus (EBV), herpes simplex virus (HSV) and human immunodeficiency virus-1 (HIV-1) indicated their selective inhibition of HIV."}, "MAGI cells": {"test_system": "MAGI cells", "experiment": "cytotoxicity in the anti-HIV assay (CC50)", "type": "cell-based", "settings": "single determinations"}, "[4]": {"settings": "replicate 1, relative to DMSO 1%, read-out: % viability, viability 1"}, "[5]": {"settings": "replicate 2, relative to DMSO 1%, read-out: % viability, viability 2"}, "[6]": {"settings": "average of two replicates, read-out: IC50 Average"}, "[7]": {"settings": "replicate 1, read-out: IC50 (1)"}, "[8]": {"settings": "replicate 2, read-out: IC50 (2)"}}, "note": "Where “and” joins values, the source holds several entries; their conditions need not be identical. Identical values can stand only once. Like-named read-outs stand apart in the source and are kept apart here.", "data": [{"smiles": "C=C1CCC2C(C)(CCC=C(C)C)C(O)CCC2(C)C1Cc1c(OC)oc(CO)c(C(=O)OC)c1=O", "note": "(stereo not drawn) [Compound 13]", "values": [{"measurement": "viability at 0.1 µM", "setting": "MCF-7 cells; Homo sapiens, MCF7, 72 h, 0.1 µM (DMSO 0.002%), read-out: A490 (control =1) ave", "result": 89.1, "unit": "%"}, {"measurement": "viability at 1 µM", "setting": "MCF-7 cells; Homo sapiens, MCF7, 72 h, 1 µM (DMSO 0.02%), read-out: A490 (control =1) ave", "result": 106, "unit": "%"}, {"measurement": "viability at 10 µM", "setting": "MCF-7 cells; Homo sapiens, MCF7, 72 h, 10 µM (DMSO 0.2%), read-out: A490 (control =1) ave", "result": 98.6, "unit": "%"}, {"measurement": "A490 ave", "setting": "MCF-7 cells; 0.1 µM (DMSO 0.002%), control 1.064", "result": 0.948}, {"measurement": "A490 ave", "setting": "MCF-7 cells; 1 µM (DMSO 0.02%), control 1.104", "result": 1.176}, {"measurement": "A490 ave", "setting": "MCF-7 cells; 10 µM (DMSO 0.2%), control 1.049", "result": 1.034}, {"measurement": "viability at 0.04 µM", "setting": "[1]; [4]", "result": 100, "unit": "%"}, {"measurement": "viability at 0.04 µM", "setting": "[1]; [5]", "result": 102, "unit": "%"}, {"measurement": "viability at 0.2 µM", "setting": "[1]; [4]", "result": 78.9, "unit": "%"}, {"measurement": "viability at 0.2 µM", "setting": "[1]; [5]", "result": 70.5, "unit": "%"}, {"measurement": "viability at 1 µM", "setting": "[1]; [4]", "result": 9.59, "unit": "%"}, {"measurement": "viability at 1 µM", "setting": "[1]; [5]", "result": 9.84, "unit": "%"}, {"measurement": "viability at 4 µM", "setting": "[1]; [4]", "result": 6.11, "unit": "%"}, {"measurement": "viability at 4 µM", "setting": "[1]; [5]", "result": 5.06, "unit": "%"}, {"measurement": "viability at 10 µM", "setting": "[1]; [4]", "result": 7.19, "unit": "%"}, {"measurement": "viability at 10 µM", "setting": "[1]; [5]", "result": 6.02, "unit": "%"}, {"measurement": "viability at 20 µM", "setting": "[1]; [4]", "result": 4.62, "unit": "%"}, {"measurement": "viability at 20 µM", "setting": "[1]; [5]", "result": 3.94, "unit": "%"}, {"measurement": "Luminescence Raw1", "setting": "DL1 cells; 0.04 µM, replicate 1", "result": 2061595}, {"measurement": "Luminescence Raw2", "setting": "DL1 cells; 0.04 µM, replicate 2", "result": 2096579}, {"measurement": "Luminescence Raw1", "setting": "DL1 cells; 0.2 µM, replicate 1", "result": 1624487}, {"measurement": "Luminescence Raw2", "setting": "DL1 cells; 0.2 µM, replicate 2", "result": 1452825}, {"measurement": "Luminescence Raw1", "setting": "DL1 cells; 1 µM, replicate 1", "result": 197587}, {"measurement": "Luminescence Raw2", "setting": "DL1 cells; 1 µM, replicate 2", "result": 202634}, {"measurement": "Luminescence Raw1", "setting": "DL1 cells; 4 µM, replicate 1", "result": 125835}, {"measurement": "Luminescence Raw2", "setting": "DL1 cells; 4 µM, replicate 2", "result": 104201}, {"measurement": "Luminescence Raw1", "setting": "DL1 cells; 10 µM, replicate 1", "result": 148189}, {"measurement": "Luminescence Raw2", "setting": "DL1 cells; 10 µM, replicate 2", "result": 124032}, {"measurement": "Luminescence Raw1", "setting": "DL1 cells; 20 µM, replicate 1", "result": 95187}, {"measurement": "Luminescence Raw2", "setting": "DL1 cells; 20 µM, replicate 2", "result": 81125}, {"measurement": "IC50", "setting": "DL1 cells; [6]", "result": 0.292, "unit": "µM"}, {"measurement": "IC50", "setting": "DL1 cells; average±SEM, read-out: IC50", "result": "0.29 ± 0.02", "unit": "µM"}, {"measurement": "IC50", "setting": "DL1 cells; [7]", "result": 0.311, "unit": "µM"}, {"measurement": "IC50", "setting": "DL1 cells; [8]", "result": 0.273, "unit": "µM"}, {"measurement": "viability at 0.04 µM", "setting": "[2]; [4]", "result": 144, "unit": "%"}, {"measurement": "viability at 0.04 µM", "setting": "[2]; [5]", "result": 152, "unit": "%"}, {"measurement": "viability at 0.2 µM", "setting": "[2]; [4]", "result": 160, "unit": "%"}, {"measurement": "viability at 0.2 µM", "setting": "[2]; [5]", "result": 139, "unit": "%"}, {"measurement": "viability at 1 µM", "setting": "[2]; [4]", "result": 157, "unit": "%"}, {"measurement": "viability at 1 µM", "setting": "[2]; [5]", "result": 122, "unit": "%"}, {"measurement": "viability at 4 µM", "setting": "[2]; [4]", "result": 90.9, "unit": "%"}, {"measurement": "viability at 4 µM", "setting": "[2]; [5]", "result": 79.1, "unit": "%"}, {"measurement": "viability at 10 µM", "setting": "[2]; [4]", "result": 20.9, "unit": "%"}, {"measurement": "viability at 10 µM", "setting": "[2]; [5]", "result": 24.3, "unit": "%"}, {"measurement": "viability at 20 µM", "setting": "[2]; [4]", "result": 10.9, "unit": "%"}, {"measurement": "viability at 20 µM", "setting": "[2]; [5]", "result": 9.4, "unit": "%"}, {"measurement": "Luminescence Raw1", "setting": "l(2)mbn cells; 0.04 µM", "result": 3699578}, {"measurement": "Luminescence Raw2", "setting": "l(2)mbn cells; 0.04 µM", "result": 3900517}, {"measurement": "Luminescence Raw1", "setting": "l(2)mbn cells; 0.2 µM", "result": 4107234}, {"measurement": "Luminescence Raw2", "setting": "l(2)mbn cells; 0.2 µM", "result": 3571875}, {"measurement": "Luminescence Raw1", "setting": "l(2)mbn cells; 1 µM", "result": 4025701}, {"measurement": "Luminescence Raw2", "setting": "l(2)mbn cells; 1 µM", "result": 3137197}, {"measurement": "Luminescence Raw1", "setting": "l(2)mbn cells; 4 µM", "result": 2332844}, {"measurement": "Luminescence Raw2", "setting": "l(2)mbn cells; 4 µM", "result": 2029883}, {"measurement": "Luminescence Raw1", "setting": "l(2)mbn cells; 10 µM", "result": 535109}, {"measurement": "Luminescence Raw2", "setting": "l(2)mbn cells; 10 µM", "result": 623453}, {"measurement": "Luminescence Raw1", "setting": "l(2)mbn cells; 20 µM", "result": 280543}, {"measurement": "Luminescence Raw2", "setting": "l(2)mbn cells; 20 µM", "result": 241241}, {"measurement": "IC50", "setting": "l(2)mbn cells; [6]", "result": 8.46, "unit": "µM"}, {"measurement": "IC50", "setting": "l(2)mbn cells; average±SEM, read-out: IC50", "result": "8.46 ± 0.98", "unit": "µM"}, {"measurement": "IC50", "setting": "l(2)mbn cells; [7]", "result": 9.44, "unit": "µM"}, {"measurement": "IC50", "setting": "l(2)mbn cells; [8]", "result": 7.47, "unit": "µM"}, {"measurement": "EC50", "setting": "[3]; Human immunodeficiency virus 1, MAGI, average of numeric determinations, read-out: Avg. EC50", "result": 0.0688, "unit": "µM"}, {"measurement": "EC50", "setting": "[3]; Human immunodeficiency virus 1, MAGI, single determinations, read-out: Efficacy (EC50)", "result": 0.0697, "unit": "µM"}, {"measurement": "EC50", "setting": "[3]; single determinations, read-out: Efficacy (EC50)", "result": "0.0611 µM and 0.0814 µM and 0.0631 µM"}, {"measurement": "Cytotoxicity", "setting": "MAGI cells", "result": ">10", "unit": "µM"}]}]}
